In PMC4980831 (Arzneimittel-Forschung, 2009):

Tests used:
[1] = biological target: PDE5 (Homo sapiens, UniProt O76074); test: IMAP fluorescence polarization PDE assay; type: biochemical
[2] = biological target: PDE11 (Homo sapiens, UniProt Q9HCR9); test: IMAP fluorescence polarization PDE assay; type: biochemical
Chain of PDE11 (Q9HCR9 whole entry): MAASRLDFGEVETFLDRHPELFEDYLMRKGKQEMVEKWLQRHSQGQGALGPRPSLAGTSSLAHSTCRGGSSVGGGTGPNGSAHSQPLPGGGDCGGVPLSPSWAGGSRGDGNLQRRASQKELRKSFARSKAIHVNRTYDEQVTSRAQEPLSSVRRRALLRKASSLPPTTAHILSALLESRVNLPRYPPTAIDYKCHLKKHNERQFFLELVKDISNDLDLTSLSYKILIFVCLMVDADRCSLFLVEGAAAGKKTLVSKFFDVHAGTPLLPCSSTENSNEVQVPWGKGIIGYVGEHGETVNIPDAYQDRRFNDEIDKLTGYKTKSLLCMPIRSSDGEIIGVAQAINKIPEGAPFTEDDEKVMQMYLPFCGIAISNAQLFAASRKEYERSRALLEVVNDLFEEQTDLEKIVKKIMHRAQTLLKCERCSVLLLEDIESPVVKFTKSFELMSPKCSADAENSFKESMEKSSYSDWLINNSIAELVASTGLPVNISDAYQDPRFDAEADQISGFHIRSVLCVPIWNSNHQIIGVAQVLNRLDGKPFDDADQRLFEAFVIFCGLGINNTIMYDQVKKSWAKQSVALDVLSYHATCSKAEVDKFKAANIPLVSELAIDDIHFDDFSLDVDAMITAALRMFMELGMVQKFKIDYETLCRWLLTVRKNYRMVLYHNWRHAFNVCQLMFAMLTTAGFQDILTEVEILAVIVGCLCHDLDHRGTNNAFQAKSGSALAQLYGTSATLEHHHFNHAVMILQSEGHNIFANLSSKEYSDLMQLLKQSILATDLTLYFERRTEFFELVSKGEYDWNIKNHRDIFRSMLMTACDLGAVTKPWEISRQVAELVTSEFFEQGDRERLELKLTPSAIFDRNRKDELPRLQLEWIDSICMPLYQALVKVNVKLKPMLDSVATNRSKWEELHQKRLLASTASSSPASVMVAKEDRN

| SMILES | IC50 [1] | IC50 [2] |
| --- | --- | --- |
| CC1=C(CC(=O)O)c2cc(F)ccc2/C1=C\c1ccc(S(C)(=O)=O)cc1 [Exisulind, reference compound] | 295 ± 1.11 µM | > 300 µM |
| COC(=O)[C@H]1Cc2c([nH]c3ccccc23)[C@@H](c2cc(OC)ccc2OC)N1 [I, Methyl (1R,3R)-1-(2,5-dimethoxyphenyl)-2,3,4,9-tetrahydro-1H-β-carboline-3-carboxylate] | 3.9 ± 1.09 µM | > 100 µM |
| COC(=O)[C@H]1Cc2c([nH]c3ccccc23)[C@H](c2cc(OC)ccc2OC)N1 [II, Methyl (1S,3R)-1-(2,5-dimethoxyphenyl)-2,3,4,9-tetrahydro-1H-β-carboline-3-carboxylate] | > 100 µM | > 100 µM |
| COC(=O)[C@@H]1Cc2c([nH]c3ccccc23)[C@H](c2cc(OC)ccc2OC)N1 [III, Methyl (1S,3S)-1-(2,5-dimethoxyphenyl)-2,3,4,9-tetrahydro-1H-β-carboline-3-carboxylate] | 14.3 ± 1.09 µM | > 100 µM |
| COC(=O)[C@@H]1Cc2c([nH]c3ccccc23)[C@@H](c2cc(OC)ccc2OC)N1 [IV, Methyl (1R,3S)-1-(2,5-dimethoxyphenyl)-2,3,4,9-tetrahydro-1H-β-carboline-3-carboxylate] | 17.4 ± 1.09 µM | > 100 µM |
| CCN1C(=O)[C@@H]2Cc3c([nH]c4ccccc34)[C@@H](c3cc(OC)ccc3OC)N2C1=S [IX, (5R,11aS)-2-ethyl-1-oxo-5-(2,5-dimethoxyphe-nyl)-5,6,11,11a-tetrahydro-1H-imidazo[1′,5′:1,6] pyrido[3,4-b]indole-3 (2H)-thione] | 78.6 ± 1.14 µM | > 100 µM |
| CCN1C(=O)[C@H]2Cc3c([nH]c4ccccc34)[C@@H](c3cc(OC)ccc3OC)N2C1=O [V, (5R,11aR)-2-Ethyl-5-(2,5-dimethoxyphenyl)-5,6,11,11a-tetrahydro-1H-imidazo[1′,5′:1,6]pyrido [3,4-b]indole-1,3(2H)-dione] | 5 ± 1.14 µM | > 100 µM |
| CCN1C(=O)[C@H]2Cc3c([nH]c4ccccc34)[C@H](c3cc(OC)ccc3OC)N2C1=O [VI, (5S,11aR)-2-Ethyl-5-(2,5-dimethoxyphenyl)-5,6,11,11^a-tetrahydro-1H-imidazo[1′,5′:1,6]pyrido [3,4-b]indole-1,3(2H)-dione] | > 100 µM | > 100 µM |
| CCN1C(=O)[C@@H]2Cc3c([nH]c4ccccc34)[C@H](c3cc(OC)ccc3OC)N2C1=O [VII, (5S,11aS)-2-Ethyl-5-(2,5-dimethoxyphenyl)-5,6,11,11a-tetrahydro-1H-imidazo[1′,5′:1,6]pyrido [3,4-b]indole-1,3(2H)-dione] | > 100 µM | > 100 µM |
| CCN1C(=O)[C@@H]2Cc3c([nH]c4ccccc34)[C@@H](c3cc(OC)ccc3OC)N2C1=O [VIII, (5R,11aS)-2-Ethyl-5-(2,5-dimethoxyphenyl)-5,6,11,11a-tetrahydro-1H-imidazo[1′,5′:1,6]pyrido [3,4-b]indole-1,3(2H)-dione] | 87.4 ± 1.1 µM | > 100 µM |
| CCN1C(=O)[C@H]2Cc3c([nH]c4ccccc34)[C@H](c3cc(OC)ccc3OC)N2C1=S [X, (5S,11aR)-2-ethyl-1-oxo-5-(2,5-dimethoxy-phenyl)-5,6,11,11a-tetrahydro-1H-imidazo [1′,5′:1,6]pyrido[3,4-b]indole-3 (2H)-thione] | > 100 µM | > 100 µM |
